This note sets out measurements from BindingDB's records for doi:10.1016/j.bmcl.2009.07.064 (University of Glasgow, 2009).

In assay [1] the target is Sodium-dependent serotonin transporter (Rattus norvegicus, UniProt P31652). Nature of the assay: Displacement of [3H]citalopram from SERT in Sprague-Dawley rat brain after 2 hrs by liquid scintillation analysis.
In assay [2] the target is Sodium-dependent dopamine transporter (Rattus norvegicus, UniProt P23977). As to the kind of experiment: Displacement of [3H]WIN-35428 from DAT in Sprague-Dawley rat brain after 2 hrs by liquid scintillation analysis.
The target in a further assay is Transporter (Rattus norvegicus, UniProt Q63380). As to the kind of experiment: Displacement of [3H]nisoxetine from NAT in Sprague-Dawley rat brain after 4 hrs by liquid scintillation analysis.
Sequence of Transporter (Q63380 whole entry): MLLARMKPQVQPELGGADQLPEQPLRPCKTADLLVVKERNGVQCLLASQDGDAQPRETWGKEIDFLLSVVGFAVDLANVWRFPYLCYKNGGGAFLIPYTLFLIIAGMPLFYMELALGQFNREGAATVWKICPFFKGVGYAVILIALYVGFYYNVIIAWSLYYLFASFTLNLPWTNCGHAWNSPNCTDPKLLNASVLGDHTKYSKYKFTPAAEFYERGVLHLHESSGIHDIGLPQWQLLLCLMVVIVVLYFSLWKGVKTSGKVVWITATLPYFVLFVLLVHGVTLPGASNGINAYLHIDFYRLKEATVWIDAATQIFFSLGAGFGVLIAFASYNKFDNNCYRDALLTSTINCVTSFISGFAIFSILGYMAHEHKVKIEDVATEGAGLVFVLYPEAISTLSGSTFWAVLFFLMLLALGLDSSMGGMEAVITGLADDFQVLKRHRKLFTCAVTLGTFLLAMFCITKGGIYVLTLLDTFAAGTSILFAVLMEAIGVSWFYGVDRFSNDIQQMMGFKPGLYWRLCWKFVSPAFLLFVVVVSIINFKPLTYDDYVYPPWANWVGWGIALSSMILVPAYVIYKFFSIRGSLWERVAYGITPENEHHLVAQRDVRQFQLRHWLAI

Sequence of Sodium-dependent dopamine transporter (P23977 whole entry): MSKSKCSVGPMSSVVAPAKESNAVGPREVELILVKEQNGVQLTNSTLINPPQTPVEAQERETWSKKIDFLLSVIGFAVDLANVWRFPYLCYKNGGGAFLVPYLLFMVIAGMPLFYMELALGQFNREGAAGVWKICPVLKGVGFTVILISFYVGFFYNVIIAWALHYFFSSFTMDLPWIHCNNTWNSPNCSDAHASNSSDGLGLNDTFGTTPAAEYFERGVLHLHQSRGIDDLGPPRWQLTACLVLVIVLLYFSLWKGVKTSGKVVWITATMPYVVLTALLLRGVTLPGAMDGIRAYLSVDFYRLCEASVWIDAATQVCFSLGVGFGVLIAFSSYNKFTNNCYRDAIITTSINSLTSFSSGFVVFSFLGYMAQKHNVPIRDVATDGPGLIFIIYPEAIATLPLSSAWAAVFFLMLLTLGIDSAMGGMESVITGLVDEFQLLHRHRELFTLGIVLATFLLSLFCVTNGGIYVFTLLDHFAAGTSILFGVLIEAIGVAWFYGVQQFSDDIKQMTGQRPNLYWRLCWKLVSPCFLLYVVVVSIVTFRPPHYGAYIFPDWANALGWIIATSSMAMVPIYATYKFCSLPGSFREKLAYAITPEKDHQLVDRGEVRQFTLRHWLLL
Sequence of Sodium-dependent serotonin transporter (P31652 whole entry): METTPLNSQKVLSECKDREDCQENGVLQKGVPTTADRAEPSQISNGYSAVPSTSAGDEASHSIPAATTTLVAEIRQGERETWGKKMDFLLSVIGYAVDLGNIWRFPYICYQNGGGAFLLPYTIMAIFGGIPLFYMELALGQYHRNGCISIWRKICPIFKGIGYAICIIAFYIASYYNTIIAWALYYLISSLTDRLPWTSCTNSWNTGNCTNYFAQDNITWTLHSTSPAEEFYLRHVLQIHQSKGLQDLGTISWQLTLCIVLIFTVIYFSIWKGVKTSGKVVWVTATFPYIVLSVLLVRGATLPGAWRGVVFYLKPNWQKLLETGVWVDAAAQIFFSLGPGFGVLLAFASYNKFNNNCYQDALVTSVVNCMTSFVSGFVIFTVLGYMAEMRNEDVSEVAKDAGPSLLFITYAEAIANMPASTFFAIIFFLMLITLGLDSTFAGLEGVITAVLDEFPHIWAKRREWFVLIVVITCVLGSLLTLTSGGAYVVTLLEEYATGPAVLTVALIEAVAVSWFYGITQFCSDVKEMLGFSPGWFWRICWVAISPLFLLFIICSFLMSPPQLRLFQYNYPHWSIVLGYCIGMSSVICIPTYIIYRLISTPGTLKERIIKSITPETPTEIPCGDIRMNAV

Consider `Ic1ccc(O[C@@H](c2ccccc2)[C@H]2CNCCO2)cc1` [(2R,3S)-2-[(4-Iodophenoxy)phenylmethyl]morpholine], for which the inhibition constant Ki is 34.5 nM in assay [1], 2100 nM in assay [2] and 1100 nM at Transporter.
In the case of `Ic1ccccc1O[C@@H](c1ccccc1)[C@H]1CNCCO1` [(2R,3S)-2-[(2-Iodophenoxy)phenylmethyl]morpholine], the inhibition constant Ki in assay [1] came to 51.5 nM; in assay [2] it was 526 nM; on Transporter it was 8.4 nM.
The matching figures for `Ic1cccc(O[C@@H](c2ccccc2)[C@H]2CNCCO2)c1` [(2R,3S)-2-[(3-Iodophenoxy)phenylmethyl]morpholine]: 154 nM, 1900 nM and 1700 nM.
